Where “and” joins values, the source holds several entries; their conditions need not be identical. Identical values can stand only once.

For one series, the system named is HEK-293 cells. The experiment in a line: Cell viability, Promega Cell Titer Glo. Background: ATP-based viability assays read luminescence as a measure of living cells.
The target of the next series is T1, GST-MSUT2 (Homo sapiens, UniProt Q6PJT7).
T1 construct: Targeted construct consisted of the c-terminal end (dark blue and amino acids 601-736) of MSUT2; made in house; host or cells: E. coli BL21 (DE3)
T1 sequence (Q6PJT7 601-736): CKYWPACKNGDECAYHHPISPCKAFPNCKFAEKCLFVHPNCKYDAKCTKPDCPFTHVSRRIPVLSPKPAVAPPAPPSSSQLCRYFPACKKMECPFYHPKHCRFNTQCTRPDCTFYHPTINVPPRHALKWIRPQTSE
The experiment in a line: Alpha Screen assay of biotinylated poly(A) RNA:GST-MSUT2 binding. The settings on record: by Alpha assay. Here is the method: (§1) Alpha Screen Assay. Samples were set up in 384 well Perkin Elmer white opaque-bottom plates (PE06). A total reaction volume of […] was plated in 384 format using a CyBio Well Vario (6 μL of donor beads (10 μg/mL), 3 μL biotinylated RNA (250 nM), 3 μL GST-MSUT2 protein (250 nM) per well). 50 nL of compounds were transferred to wells via CyBio Vario equipped with Pin Tool. This mixture was incubated at room temperature for 30 minutes away from light. Next 3 μL of acceptor beads (1.25 μg/mL) was added. Plates were incubated at room temperature away from light for 60 minutes and subsequently read on a Perkin Elmer EnVision multimode microplate reader equipped with stackers using a standard 384-well Alpha Assay software protocol.
Results. Alpha Screen design and underlying principle. Alpha Screen technology relies on donor beads, coated with a hydrogel excitable by 680 nm, brought within close proximity to an acceptor bead leading to light emission and detection. In this assay, streptavidin coated donor beads tightly bind to biotinylated-poly(A) RNA while the glutathione-coated acceptor bead binds to GST-tagged MSUT2 protein. […] When this interaction is blocked by an inhibitor, the proximity threshold for donor and acceptor beads is not met, singlet oxygen transference cannot occur, and light is not emitted by the acceptor bead (FIG. 1a).
Identification and validation of MSUT2 inhibitory compounds from NIHCC library. The single-point primary screen was conducted in duplicate and utilized the FP assay conditions determined herein (e.g., 125 nM MSUT2 RNABP and 10 nM FAM-RNA probe) with 10 μM library compounds added in a 96-well format. […] Compound specificity was empirically tested by counter screening against PABPN1, a regulator of the length of mRNA poly(A) tails (Apponi, L. H. et al. Hum Mol Genet 19, 1058-1065, (2010); and Benoit, B. et al. Dev Cell 9, 511-522, (2005)). IC50 of each of the previous 8 compounds was determined for PABPN1 using fluorescence polarization (FIG. 11), and a specificity ratio determined (Table 3). An Alpha Screen (AS) assay was developed as an orthogonal screen. Briefly, in this screen, biotinylated RNA binds streptavidin-coated donor beads, while GST-MSUT2 ZF binds glutathione-coated acceptor beads. […] Toxicity of these compounds in a HEK cell model was determined using a standard Promega Cell Titer Glo assay.
Alpha Screen Assay. […] The plate was then incubated again at room temperature away from light for 60 minutes and subsequently read on a Perkin Elmer EnSight multimode microplate reader using a standard 96-well Alpha Assay protocol.

The target of series [1] is T2, Soluble epoxide hydrolase (gene EPXH2) (Homo sapiens, UniProt P34913).
T2 sequence (P34913 1-555): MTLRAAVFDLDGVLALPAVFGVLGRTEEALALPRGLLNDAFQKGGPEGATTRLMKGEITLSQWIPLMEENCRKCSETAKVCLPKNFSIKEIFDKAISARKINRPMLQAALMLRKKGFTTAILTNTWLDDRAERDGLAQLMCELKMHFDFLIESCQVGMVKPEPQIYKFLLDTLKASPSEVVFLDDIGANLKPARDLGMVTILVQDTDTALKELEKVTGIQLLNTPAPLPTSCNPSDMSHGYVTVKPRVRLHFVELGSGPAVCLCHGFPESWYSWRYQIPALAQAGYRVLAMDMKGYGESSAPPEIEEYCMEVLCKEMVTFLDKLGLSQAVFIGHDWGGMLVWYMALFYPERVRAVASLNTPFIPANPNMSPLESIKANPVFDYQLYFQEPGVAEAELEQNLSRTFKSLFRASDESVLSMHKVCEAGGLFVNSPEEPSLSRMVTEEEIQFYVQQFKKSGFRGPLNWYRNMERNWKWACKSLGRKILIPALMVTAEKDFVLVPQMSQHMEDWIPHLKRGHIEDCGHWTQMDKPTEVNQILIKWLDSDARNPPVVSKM
The settings on record: read-out: Ki (nM) for Known Target; cited from earlier work.

For a further series, the target named is T3, PABPN1 (Homo sapiens, UniProt Q86U42).
T3 construct: made in house; host or cells: E. coli BL21 (DE3)
T3 sequence (Q86U42 1-306): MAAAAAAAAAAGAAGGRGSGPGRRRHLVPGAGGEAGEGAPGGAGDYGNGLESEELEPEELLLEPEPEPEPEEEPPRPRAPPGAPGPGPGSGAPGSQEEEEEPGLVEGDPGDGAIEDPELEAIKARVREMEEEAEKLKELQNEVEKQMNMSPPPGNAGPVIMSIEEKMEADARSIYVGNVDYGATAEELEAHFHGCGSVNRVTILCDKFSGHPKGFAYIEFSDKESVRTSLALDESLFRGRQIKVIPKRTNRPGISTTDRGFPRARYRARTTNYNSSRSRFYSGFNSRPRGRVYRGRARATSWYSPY
Briefly: Alpha Screen selectivity screen against PABPN1. In kind it is binding. As to conditions: Alpha Screen dose response IC50s. Here is the method:
FIGS. 6A-B show the Selectivity screen. Compounds were screened by Alpha Screen (FIG. 6A) for MSUT2 and PABPN1 (FIG. 6B) dose response. IC50s indicated.
as §1
Screening of the Spectrum Collection. […] The hit window consisted of those compounds 7 standard deviations from the mean (FIG. 2a). In follow up dose-response testing, 11 of the 20 initial hits were validated and moved forward to further validation studies (FIG. 3). Unbound fluorescein-labeled RNA rapidly rotates in solution compared to MSUT2-bound. […] These four compounds were tested for an effect on cell viability using a HEK-cell model. […]

Experimental for HEK-293 cells: Cell culture and cytotoxicity screen. […] Cell viability was assessed as using Promega Cell Titer Glo (Promega G7570) per manufacturer protocol. Briefly, HEK-293 cells were grown to 70% confluence in a 96 well plate were treated with indicated concentrations of compounds and incubated for 72 hours at 37° C. Plates were read for luminescence on Perkin Elmer Enspire Alpha.
Cell viability was assessed. Briefly, HEK-293 cells grown to 70% confluence in a 96 well dish were treated with varying concentrations of compound (final concentration of 2% DMSO) and incubated for 72 hours. Next, Promega Cell Titer Glo assay was used to assess viability per manufacturer instructions (Promega G7570).

The Ki is the equilibrium dissociation constant of an inhibitor or competing ligand from its target. For `O=c1c2ccccc2[se]n1-c1ccccc1` [Ebselen], in the series with HEK-293 cells (HEK-293, 72 hours, indicated concentrations), the “toxicity (effect on cell viability)” value is given as “did not show toxicity in a dose-dependent manner”. Moreover, in the series on HEK-293 cells (HEK-293, at the tested doses, compared to DMSO control), the “reduction of cell viability” value is given as “roughly 40%”. Further, the figures for the inhibition constant Ki (on GST-MSUT2; in series [1]) were 1580 nM and 0.55 nM, respectively. The “fold selectivity for MSUT2 over PABPN1” value at PABPN1 is 5 fold and 4.6 fold.

The values above are taken from patent US20210386709A1, “COMPOSITIONS AND METHODS FOR SUPPRESSING MSUT2” (United States Government As Represented By The Department …, priority 2020, published 2021).
